{"source": "ChEMBL document CHEMBL4219065", "about": "“Progress in the Development of Preventative Drugs for Cisplatin-Induced Hearing Loss” (J Med Chem, 2018)", "key": {"[1]": {"test": "Terminal half life in rat", "conditions": "in vivo"}, "Homo sapiens": {"test_system": "Homo sapiens", "test": "Protection against cisplatin-induced ototoxicity in human assessed as reduction in hearing loss administered iv 35 mins prior to cisplatin treatment", "assay_type": "functional", "design": "scale not given: the % may be the effect or the level left"}}, "data": [{"smiles": "[14CH3]SCC[C@@H](N)C(=O)O", "values": [{"measurement": "half-life", "setting": "[1]", "result": 34.2, "unit": "min"}]}, {"smiles": "NCCCNCCSP(=O)(O)O", "note": "[AMIFOSTINE]", "values": [{"measurement": "Activity", "setting": "Homo sapiens", "result": 43, "unit": "%"}]}]}
